Measurements as given in article PMC11047535, “Pharmacokinetics and Nephrotoxicity of Polymyxin MRX-8 in Rats: A Novel Agent against Resistant Gram-Negative Bacteria” (Antibiotics, 2024).
Read-outs that look alike come from different tables or passages of the source. Positions of bridges follow the written chain, without caps; N, C: chain ends. Non-standard residues stand in square brackets, D forms with d. Residues, ends and D or L forms follow the SMILES beside them. *: point of attachment. Propanoyl(3-OH) = O=C(CCO)*; X1 = CC[C@H](C)CCCCC(=O)*; Dab = NCC[C@H](N)C(=O)O

Columns and labels:
Assay type in all cases: in vivo, Sprague-Dawley (SD) rats
[1] = Pharmacokinetics in rat plasma after single subcutaneous administration (LC-MS/MS, non-compartmental analysis); details: for CLz (total body clearance for extravascular administration) / V (volume of distribution) / AUC(0-t) / Cmax / Tmax / MRT / half-life: LC-MS/MS, NCA, n = 5; for AUC(0-t) / Cmax / Tmax / MRT / half-life: Sprague-Dawley, sc; for MRT: read-out: MRT (mean residence time); for half-life: read-out: T1/2 (terminal half-life) (converted)
Description: A Shimadzu LC-30A UHPLC system (Shimadzu, Kyoto, Japan) coupled with a Sciex QTRAP-5500 tandem mass spectrometer (Sciex, Framingham, MA, USA) was utilized. The chromatography was separated on a PHENOMENEX Kinetex®XB-C18 column (Phenomenex, Torrance, CA, USA) (100 mm × 2.1 mm, 2.6 μm) at 40 °C. The mobile phases were 2 mM of an ammonium acetate solution with 0.1% formic acid as the aqueous phase and acetonitrile solution with 0.1% formic acid as the organic phase. The gradient elution condition settings are detailed in Table S1. The mass spectrometer was operated in positive ESI mode with the following parameters: nebulizer gas (45 psi), heater gas (55 psi), curtain gas (40 psi), ion-spray voltage 4500 V, and ion source temperature of 450 °C.
An aliquot of 40 μL of rat plasma samples, 50 μL of polymyxin B1 (IS, 20 mg/L), and 50 μL of 6% formic acid in water were mixed. Then, 300 μL of acetonitrile was added to the mixture to precipitate proteins and centrifuged at 4 °C at 13,800 g for 10 min. A 100 μL aliquot of the supernatant was transferred and mixed with 150 μL of 6% formic acid water, and 5 μL was injected into the LC-MS/MS system.
A total of 20 wild-type male Sprague-Dawley (SD) rats weighing 280 g ± 20 g were randomly divided into 4 groups. Water and food were adequately provided. Four groups were given MRX-8 at doses of 2 mg/kg, 4 mg/kg, 6 mg/kg, and 8 mg/kg of body weight (dissolved in normal saline). 0.5 mL of blood samples were obtained from the jugular vein (without anesthesia) before and 0.25, 0.5, 1, 2, 4, 6, 8, and 24 h after dosing. Blood samples were collected into tubes with EDTA-K2 anticoagulant and centrifuged at 4 °C at 3500 g for 10 min. The plasma was collected and stored in a −70 °C refrigerator until analysis.
In the meantime, 10 additional SD rats were divided into two groups (5 rats each) and administered PMB at 4 mg/kg and 8 mg/kg, separately. Blood samples were obtained before and 0.25, 0.5, 1, 2, 4, 6, 8, 10, 12, and 24 h after dosing. The drug administration and sample collection methods were consistent with those used for MRX-8.
MRX-8 and MRX-8039 concentrations in plasma were measured, and mean concentration–time curves were plotted. […] After the administration, concentrations below the LLOQ were discarded.

rats [2] = assay: Creatinine in rat plasma (nephrotoxicity), ADVIA Chemistry XPT analyzer; details: for creatinine concentration: SD rats
Description: (§1) Rats’ plasma and urine were collected continuously for 24 h after being administered subcutaneously. The plasma collected for the PK assay was split for creatinine and BUN concentrations, whereas a separate experiment was conducted to measure the biomarkers. The concentrations of creatinine and BUN in rat plasma were quantified utilizing the ADVIA Chemistry XPT analyzer (Siemens Healthcare, Munich, Germany). Rat plasma samples, along with quality control samples, were prepared and processed with dedicated reagent cartridges.

rats [3] = assay: Plasma NGAL kidney injury biomarker, ELISA; details: 24 h after single s.c. 8 mg/kg, saline group 53.03 ± 2.25
Description: as §1
(§2) Enzyme-linked immunosorbent assay kits specific for KIM-1 (Cell Signaling Technology, Danvers, MA, USA), NGAL (Sangon Biotech, Shanghai, China), and TIMP-1 (Sangon Biotech, Shanghai, China) were utilized for analysis.

rats [4] = assay: Blood urea nitrogen (BUN) in rat plasma (nephrotoxicity), ADVIA Chemistry XPT analyzer; details: for BUN level: SD rats
Description: as §1

rats [5] = assay: Urinary TIMP-1 kidney injury biomarker, ELISA; details: for urinary TIMP-1 level: saline group 2.89 ± 1.80
Description: as §1, §2

rat kidney tissues = assay: Kidney histology, PAS staining and semi-quantitative scores (SQS); details: PAS staining
Description: The kidney tissues were taken 24 h after the PK sample collection. The tissues were embedded in paraffin, sliced, dewaxed into water, and washed for 5 min. […] The pathology scores refer to the paper published by Jumana et al.. Briefly, the renal histological assessment included three grades of tubular damage. Scores were assigned to grades: grade 1 = 1, grade 2 = 4, and grade 3 = 10. Kidney involvement was assessed based on the percentage of affected slices: <1% = 0, 1 to <5% = 1, 5 to <10% = 2, 10 to <20% = 3, 20 to <30% = 4, 30 to <40% = 5, and ≥40% = 6. The overall score was calculated by multiplying the percentage score with the grade score. Finally, SQS for renal histological changes was assigned: SQS 0 = no significant change (overall score: <1); SQS +1 = mild damage (overall score: 1 to <15); SQS +2 = mild-to-moderate damage (overall score: 15 to <30); SQS +3 = moderate damage (overall score: 30 to <45); SQS +4 = moderate-to-severe damage (overall score: 45 to <60); and SQS +5 = severe damage (overall score: 60). The samples in this experiment were examined by pathologist Shaojun Liu, who had no knowledge of the grouping.
A one-way ANOVA was performed to evaluate (1) the PK parameters of T1/2, CLZ, V, and MRT at the dosages of 4, 6, and 8 mg/kg; (2) the concentrations of kidney injury biomarkers between the saline, MRX-8, and PMB groups. […]

rats [6] = assay: Urinary KIM-1 kidney injury biomarker, ELISA; details: 24 h after single s.c. 4 and 8 mg/kg, high variability within each group
Description: as §1, §2

rats [7] = assay: Urinary NGAL kidney injury biomarker, ELISA; details: saline group 45.22 ± 1.46
Description: as §1, §2

[8] = SD rats, single s.c. dose 4 mg/kg, plasma
[9] = SD rats, single s.c. dose 8 mg/kg, plasma
[10] = rat, in vivo, SD rats, single s.c. dose 4 mg/kg, plasma
[11] = rat, in vivo, SD rats, single s.c. dose 8 mg/kg, plasma

CC(C)C[C@@H]1NC(=O)[C@@H](Cc2ccccc2)NC(=O)[C@H](CCN)NC(=O)[C@@H](NC(=O)[C@H](CCN)NC(=O)[C@@H](NC(=O)[C@H](CCN)NC(=O)CCO)[C@@H](C)O)CCNC(=O)[C@H]([C@@H](C)O)NC(=O)[C@H](CCN)NC(=O)[C@H](CCN)NC1=O [MRX-8039] ({Propanoyl(3-OH)}-[Dab]T[Dab][Dab][Dab][dF]L[Dab][Dab]T; lactam 4-C)
Tmax delay of MRX-8039 relative to MRX-8 ([1]; rat, in vivo): approximately 1.5 h

CC[C@H](C)CCCCC(=O)N[C@@H](CCN)C(=O)N[C@H](C(=O)N[C@@H](CCN)C(=O)N[C@H]1CCNC(=O)[C@H]([C@@H](C)O)NC(=O)[C@H](CCN)NC(=O)[C@H](CCN)NC(=O)[C@H](CC(C)C)NC(=O)[C@@H](Cc2ccccc2)NC(=O)[C@H](CCN)NC1=O)[C@@H](C)O [PMB, polymyxin B] (X1-[Dab]T[Dab][Dab][Dab][dF]L[Dab][Dab]T; lactam 4-C)
creatinine concentration (rats [2]; 8 h after single s.c. 4 mg/kg, saline group 21.25 ± 2.22): 103.86 ± 12.66 µmol/L
creatinine concentration (rats [2]; 8 h after single s.c. 8 mg/kg, saline group 21.25 ± 2.22): 85.61 ± 17.27 µmol/L
change of blood creatinine levels compared to the saline group (rats [2]; 8 h and 24 h after single s.c. dose (MRX-8 2 to 8 mg/kg; PMB 4 and 8 mg/kg), one-way ANOVA): significant increase
creatinine concentration (rats [2]; 24 h after single s.c. 4 mg/kg, saline group 22.5 ± 2.52): 169.79 ± 61.93 µmol/L
creatinine concentration (rats [2]; 24 h after single s.c. 8 mg/kg, saline group 22.5 ± 2.52): 110.81 ± 67.3 µmol/L
Tmax (absorption, as read from Figure 3) ([1]; SD rats, s.c. administration, plasma, range over dose groups): 4~6 h
CLz (total body clearance for extravascular administration) [1, 8]: 4 ± 1 mL/min/kg
V (volume of distribution) [1, 8]: 1.52 ± 0.27 L/kg
CLz (total body clearance for extravascular administration) [1, 9]: 4.17 ± 0.33 mL/min/kg
V (volume of distribution) [1, 9]: 1.49 ± 0.31 L/kg
AUC(0-t) ([1]; rat, in vivo, 4 mg/kg, SD rats, single s.c. dose 4 mg/kg, plasma, read-out: AUC0–8 h): 9550 ± 2540 ng·h/mL
AUC(0-t) ([1]; rat, in vivo, 4 mg/kg, SD rats, single s.c. dose 4 mg/kg, plasma, read-out: AUC0–24 h): 17100 ± 3900 ng·h/mL
AUC(0-t) ([1]; rat, in vivo, 8 mg/kg, SD rats, single s.c. dose 8 mg/kg, plasma, read-out: AUC0–8 h): 17900 ± 3050 ng·h/mL
AUC(0-t) ([1]; rat, in vivo, 8 mg/kg, SD rats, single s.c. dose 8 mg/kg, plasma, read-out: AUC0–24 h): 31200 ± 3140 ng·h/mL
Cmax [1, 10]: 1770 ± 510 ng/mL
Tmax [1, 10]: 4.8 ± 1.1 h
MRT [1, 10]: 8.66 ± 0.7 h
half-life [1, 10]: 4.55 ± 0.56 h
Cmax [1, 11]: 3150 ± 440 ng/mL
Tmax [1, 11]: 6 h
MRT [1, 11]: 8.23 ± 0.71 h
half-life [1, 11]: 4.09 ± 0.44 h
NGAL level in plasma (rats [3]): 61.14 ± 2.52 ng/mL
BUN level (rats [4]; 8 h after single s.c. 4 mg/kg, saline group 5.52 ± 0.56): 19.58 ± 3.05 mmol/L
BUN level (rats [4]; 8 h after single s.c. 8 mg/kg): 15.36 ± 3.05 mmol/L
change of BUN levels compared to the saline group (rats [4]; 8 h and 24 h after single s.c. dose (PMB 4 and 8 mg/kg; MRX-8, except significant increase at 4 mg/kg at 8 h)): significant increase
BUN level (rats [4]; 24 h after single s.c. 4 mg/kg): 44.3 ± 1.12 mmol/L
BUN level (rats [4]; 24 h after single s.c. 8 mg/kg): 54.85 ± 11.81 mmol/L
urinary TIMP-1 level (rats [5]; 24 h after single s.c. 4 mg/kg): 20.65 ± 12.44 ng/mL
urinary TIMP-1 level (rats [5]; 24 h after single s.c. 8 mg/kg): 20.54 ± 7.82 ng/mL
change of urinary TIMP-1 compared to the saline group (rats [5]; 24 h after single s.c. 4 and 8 mg/kg): increased significantly
histological findings in kidney tissues (rat kidney tissues; 24 h post single s.c. dose of 8 mg/kg): more severe renal damage, including tubular dilation, cellular necrosis, and tubular formation
histological findings in kidney tissues (rat kidney tissues; 24 h post single s.c. dose, compared to the saline group): mild focal tubular cell shedding and cytoplasmic attenuation
change of urine KIM-1 levels compared to the saline group (rats [6]): No statistically significant differences
urinary NGAL level (rats [7]; 24 h after single s.c. 4 mg/kg): 50.34 ± 2.70 ng/mL
urinary NGAL level (rats [7]; 24 h after single s.c. 8 mg/kg): 56.95 ± 6.01 ng/mL
